This note sets out measurements from patent US11759462B2, “Spirocyclic compounds as tryptophan hydroxylase inhibitors” (priority 2013, dated 2023).

Molecules are shown by their SMILES.

For assay [1], the system named is jejunal mucosal 5-HT in mice (C57 BL6). Description: Intestinal 5-HT depletion assay (Example B, single 150 mg/kg oral dose). The assay is classed as in vivo, mouse. The note with it: one day after oral administration of a single 150 mg/kg dose, P-value class (ANOVA). On the procedure: The efficacy of the TPH1 inhibitors of the invention was assessed for the ability to decrease intestinal serotonin concentration in mice. Mice (C57 BL6) were administered a single 150 mg/kg dose of test article by oral gavage. Each animal was euthanized by exsanguination under isoflurane anesthesia. Jejunal intestinal mucosa was isolated and homogenized in 300 μL of a buffer containing 0.3M trichloroacetic acid, 0.1M sodium acetate, 10 mM EDTA, 20 mM sodium bisulfate and 50 mM ascorbic acid. Following centrifugation the 5-HT levels in the supernatants were measured by HPLC. The remaining mucosal pellet was solubilized overnight at 37° C. in a 0.1% sodium dodecyl sulfate buffer in 0.1N NaOH followed by determination of protein concentrations using a BCA protein assay (Pierce, Rockford, Ill. 5-HT levels were normalized to protein and data were expressed as mean percent reduction of mucosal 5-HT levels relative to vehicle control SEM (percent 5-HT reduction). All animal studies were carried out with protocols approved by the Institutional Animal Care and Use Committee.
P-values, indicating statistical significance of the data (ANOVA) are provided in the table: * refers to P<0.05, ** refers to P<0.01, *** refers to P<0.005, and refers to P<0.0005.

For assay [2], the target named is T1, Recombinant human TPH1 (MBP tagged) (Homo sapiens, UniProt P17752).
T1 construct: cloning full length human TPH1 cDNA in to a bacterial pMAL-c5E expression vector; made in house; host or cells: E. coli BL21 (DE3)
T1 sequence (P17752 1-444): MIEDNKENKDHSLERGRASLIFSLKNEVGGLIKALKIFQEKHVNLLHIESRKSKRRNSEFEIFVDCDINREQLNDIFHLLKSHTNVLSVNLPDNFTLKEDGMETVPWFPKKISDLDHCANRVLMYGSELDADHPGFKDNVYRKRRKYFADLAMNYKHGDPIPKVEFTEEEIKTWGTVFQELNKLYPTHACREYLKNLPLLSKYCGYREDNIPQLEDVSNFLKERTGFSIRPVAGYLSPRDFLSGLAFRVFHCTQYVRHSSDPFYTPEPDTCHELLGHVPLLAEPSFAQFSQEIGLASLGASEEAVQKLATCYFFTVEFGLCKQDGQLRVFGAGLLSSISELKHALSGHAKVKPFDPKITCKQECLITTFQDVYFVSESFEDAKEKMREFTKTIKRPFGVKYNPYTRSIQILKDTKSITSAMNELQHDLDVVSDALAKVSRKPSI
Description: TPH1 in vitro inhibition assay (kinetic fluorescence). In kind it is biochemical. Particulars: read-out: TPH1 Range (TPH1 inhibition IC50). In outline:
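Final mix: 15 nM MBP-TPH1, 30 μM Trp, 36 μM 6-methyltetrahydropterin, 25 μM ferrous ammonium sulfate, 50 mM MES pH 7.1, 1% DMSO, room temperature.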

A word on the IC50: it is the concentration at which inhibition is half-maximal. Regarding `Cc1ccn(-c2cc(-c3cnn(C)c3)ccc2[C@@H](Oc2cc(N3CCC4(CC3)CN[C@H](C(=O)O)C4)nc(N)n2)C(F)(F)F)n1` [Example 1h, (S)-8-(2-amino-6-((R)-2,2,2-trifluoro-1-(2-(3-methyl-1H-pyrazol-1-yl)-4-(1-methyl-1H-pyrazol-4-yl)phenyl)ethoxy)pyrimidin-4-yl)-2,8-diazaspiro[4.5]decane-3-carboxylic acid], the “Efficacy (statistical significance of reduction of mucosal 5-HT concentrations relative to vehicle)” value in assay [1] is recorded as “** (** refers to P<0.01)”. Besides, in assay [2], the IC50 was < 50 nM.

Turning to `Cc1ccn(-c2cc(-c3ccc4c(C)n[nH]c4c3)ccc2[C@@H](Oc2cc(N3CCC4(CC3)CN[C@H](C(=O)O)C4)nc(N)n2)C(F)(F)F)n1` [Example 1o, (S)-8-(2-amino-6-((R)-2,2,2-trifluoro-1-(4-(3-methyl-1H-indazol-6-yl)-2-(3-methyl-1H-pyrazol-1-yl)phenyl)ethoxy)pyrimidin-4-yl)-2,8-diazaspiro[4.5]decane-3-carboxylic acid], the “Efficacy (statistical significance of reduction of mucosal 5-HT concentrations relative to vehicle)” value in assay [1] is recorded as “** (** refers to P<0.01)”. The IC50 in assay [2] was < 50 nM.

As to `Cc1ccn(-c2cc(-c3ccc(C(C)(C)C)cc3)ccc2[C@@H](Oc2cc(N3CCC4(CC3)CN[C@H](C(=O)O)C4)nc(N)n2)C(F)(F)F)n1` [Example 1p, (S)-8-(2-amino-6-((R)-1-(4′-(tert-butyl)-3-(3-methyl-1H-pyrazol-1-yl)-[1,1′-biphenyl]-4-yl)-2,2,2-trifluoroethoxy)pyrimidin-4-yl)-2,8-diazaspiro[4.5]decane-3-carboxylic acid], the “Efficacy (statistical significance of reduction of mucosal 5-HT concentrations relative to vehicle)” value in assay [1] is on record as “** (** refers to P<0.01)”. The IC50 in assay [2] is < 50 nM.

Regarding `CC(=O)NCCc1ccc(-c2ccc([C@@H](Oc3cc(N4CCC5(CC4)CN[C@H](C(=O)O)C5)nc(N)n3)C(F)(F)F)c(-n3ccc(C)n3)c2)cc1` [Example 1y, (S)-8-(6-((R)-1-(4′-(2-acetamidoethyl)-3-(3-methyl-1H-pyrazol-1-yl)-[1,1′-biphenyl]-4-yl)-2,2,2-trifluoroethoxy)-2-aminopyrimidin-4-yl)-2,8-diazaspiro[4.5]decane-3-carboxylic acid], the “Efficacy (statistical significance of reduction of mucosal 5-HT concentrations relative to vehicle)” value in assay [1] is listed as “** (** refers to P<0.01)”. The IC50 in assay [2] is < 50 nM.

`COc1ccc([C@@H](Oc2cc(N3CCC4(CC3)CNC(C(=O)O)C4)nc(N)n2)C(F)(F)F)c(-n2ccc(C)n2)c1` (stereo partly drawn) [Example 10j, 8-(2-amino-6-((R)-2,2,2-trifluoro-1-(4-methoxy-2-(3-methyl-1H-pyrazol-1-yl)phenyl)ethoxy)pyrimidin-4-yl)-2,8-diazaspiro[4.5]decane-3-carboxylic acid]: the “Efficacy (statistical significance of reduction of mucosal 5-HT concentrations relative to vehicle)” value in assay [1] was “**** (and refers to P<0.0005)”. The IC50 in assay [2] fell in the range of 50 to 300 nM.

In the case of `Cc1ccn(-c2ccc(Cl)cc2[C@@H](Oc2cc(N3CCC4(CC3)CNC(C(=O)O)C4)nc(N)n2)C(F)(F)F)n1` (stereo partly drawn) [Example 10k, 8-(2-amino-6-((R)-1-(5-chloro-2-(3-methyl-1H-pyrazol-1-yl)phenyl)-2,2,2-trifluoroethoxy)pyrimidin-4-yl)-2,8-diazaspiro[4.5]decane-3-carboxylic acid], in assay [1], the “Efficacy (statistical significance of reduction of mucosal 5-HT concentrations relative to vehicle)” value is “* (* refers to P<0.05)”. Moreover, the IC50 in assay [2] lay in the range of 50 to 300 nM.

In the case of `Cc1ccc([C@@H](Oc2cc(N3CCC4(CC3)CN[C@H](C(=O)O)C4)nc(N)n2)C(F)(F)F)c(-n2ccc(C)n2)n1` [Example 11, (S)-8-(2-amino-6-((R)-2,2,2-trifluoro-1-(6-methyl-2-(3-methyl-1H-pyrazol-1-yl)pyridin-3-yl)ethoxy)pyrimidin-4-yl)-2,8-diazaspiro[4.5]decane-3-carboxylic acid], in assay [1], the “Efficacy (statistical significance of reduction of mucosal 5-HT concentrations relative to vehicle)” value was “**** (and refers to P<0.0005)”. Besides, in assay [2], the IC50 lay in the range of 50 to 300 nM.
